Test results reported in patent EP2871962B1, “WOOD PROTECTION AGAINST MICROORGANISMS BY LACCASE-CATALYSED IODINATION” (EMPA Eidgenössische Materialprüfungs- und Forschungsanstalt, priority 2012, dated 2013).
Several values for one entry are separate records, joined by “and”; a condition that tells them apart may be missing. Identical values can stand only once.

Legend:
[1] = tested on: Trametes versicolor laccase; test: Laccase-catalysed oxidation of iodide to tri-iodide with redox mediators (absorbance at 353 nm); format: biochemical
Method: The enzyme used in the study was a commercial laccase from Trametes versicolor (Sigma-Aldrich). […] Reactions were performed in transparent polymethyl methacrylate (PMMA) cuvettes or polystyrene micro titer plates. Change in absorbance (ΔA) at 420nm was recorded in intervals of 10sec for 3min. Samples with very high activities were diluted 10-fold with ddH2O before using them in the assay. Volumetric activities were calculated using an extinction coefficient (ε) of 0.036µmol^-1 1 cm^-1 (36000mol^-1 1 cm^-1) (22), according to the following equation (Δt in min, V in µl):
The laccase-catalysed oxidation of iodide (I^-) to iodine (I2) was monitored by the formation of triiodide (I3^-) at 353nm (laccase activity 0.12U ml^-1, 50mM iodide, citrate buffer pH 4.5, extinction coefficient of I3^- ε = 28000 mol^-1 1 cm^-1) (24, 17). […] Well-known synthetic (ABTS) and natural (acetosyringone [ACS], 4-hydroxybenzoic acid [HBA]) laccase mediators were tested (25, 26). […] The pH optima for mediator-enhanced oxidation of iodide were determined using the McIlvain citrate-phoshate buffer series.

Aureobasidium pullulans = test: Growth inhibition by iodinated and non-iodinated phenols on agar plates (Example 2); format: cell-based; conditions: ± standard deviation, n = 6; for inhibition at 1000 µM: 1mM in 2% malt extract agar; for inhibition at 2000 µM: 2mM in 2% malt extract agar; for inhibition at 4000 µM: 4mM in 2% malt extract agar
Method: (§1) Vanillin and ethyl-vanillin (4 mM) were incubated in the presence of commercial T. versicolor laccase (250 mg per L), 0.1 mM mediator ABTS and 50 mM potassium iodide in citrate-phosphate buffer (pH 5.0) for 20 h at room temperature. The reaction vessels with a liquid volume of 1 L were aerated with pressurized air through a frit. Reaction products were extracted by addition of 250 mL ethyl-acetate, thorough mixing and subsequent separation of the organic phase. The solvent was removed in a rotary evaporator at 50°C under vacuum until solid products were obtained. Reaction products were re-dissolved in ethyl-acetate and analysed by HPLC-MS.
(§2) For biotests, iodo-vanillin and iodo-ethyl-vanillin were dissolved to a concentration of 0.4 M in DMSO (stock solution). The non-iodinated reference compounds (educts) vanillin and ethyl-vanillin were dissolved to a concentration of 0.1 M in ethanol. All compounds were evaluated on agar plates (Ø 90mm). The compounds were added to 2% malt extract agar after autoclaving to final concentrations of 1, 2 and 4 mM, respectively. Control plates contained similar amounts of DMSO or ethanol as added with stock solutions. Supplemented agar plates were inoculated in the centre with a mycelium agar disc (9-mm diameter) taken from the submargins of 14-day old cultures of the basidiomycetes Oligoporus placenta, Gloephyllum trabeum, Coniophora puteana, Trametes versicolor and the ascomycete Aureobasidium pullulans. Plates were incubated at 22 °C and 70% RH. The radial fungal growth was estimated by measuring the colony diameter, and the growth inhibition was expressed as percentage reduction of this value after similar incubation times. Growth inhibition data of 6 replicate plates per compound/control were arcsine transformed prior to statistical analysis (ANOVA) and back transformed to numerical values for visualization. Means were separated using Tukey's HSD (honestly significant difference) test at significance levels with P values of <0.05 and <0.001. The statistical package used for all analyses was SPSS (version 17.0; SPSS Inc., Chicago, IL).

Coniophora puteana = test: as above; format: cell-based; conditions: ± standard deviation, n = 6, read-out: Growth inhibition, C. puteana; for inhibition at 1000 µM: 1mM in 2% malt extract agar; for inhibition at 2000 µM: 2mM in 2% malt extract agar; for inhibition at 4000 µM: 4mM in 2% malt extract agar
Method: as §1, §2

Gloephyllum trabeum = test: as above; format: cell-based; conditions: Gloeophyllum trabeum, ± standard deviation, n = 6, read-out: Growth inhibition, G. trabeum; for inhibition at 1000 µM: 1mM in 2% malt extract agar; for inhibition at 2000 µM: 2mM in 2% malt extract agar; for inhibition at 4000 µM: 4mM in 2% malt extract agar
Method: as §1, §2

Oligoporus placenta = test: as above; format: cell-based; conditions: Rhodonia placenta, ± standard deviation, n = 6, read-out: Growth inhibition, O. placenta; for inhibition at 1000 µM: 1mM in 2% malt extract agar; for inhibition at 2000 µM: 2mM in 2% malt extract agar; for inhibition at 4000 µM: 4mM in 2% malt extract agar
Method: as §1, §2

Trametes versicolor = test: as above; format: cell-based; conditions: ± standard deviation, n = 6, read-out: Growth inhibition, T. versicolor; for inhibition at 1000 µM: 1mM in 2% malt extract agar; for inhibition at 2000 µM: 2mM in 2% malt extract agar; for inhibition at 4000 µM: 4mM in 2% malt extract agar
Method: as §1, §2

[2] = tested on: A. pullulans, C. picea, C. herbarum and D. pinicola; test: Biotests 2: blue stain test of treated wood (EN 152-2, modified); format: cell-based; conditions: 6 weeks of incubation, mean of stain categories 0-5 ±SE, n = 6, Mediator = ACS (50 µM); for Blue stain discoloration, Leached: wood batch 2, leached (EN 84); for Blue stain discoloration, Non-leached: wood batch 2, non-leached
Method: (§3) Wood specimens (batch 1: 10 x 10 x 5 mm, length x width x height used in the biotests 1 and batch 2: 20 x 15 x 10 mm used in the biotests 2), free of defects, were extracted longitudinally from boards of Norway spruce trees grown in Switzerland, in order to minimize the influence of natural variability. All specimens were conditioned at 23C°(±1°C) and 50% (±5%) relative humidity (RH) until they reached an equilibrium moisture content of approximately 8-10%. Prior to the wood treatment the specimens were sterilized by autoclaving for 20min at 121°C(±1°C).
The enzymatic wood iodination and polymerisation were carried out by dipping three wood specimens of batch 1 in 30ml or 12 wood specimens of batch 2 in 200ml reaction solution (pH 4-6) containing one of the phenolic compounds (4mM), or potassium iodide (1 or 50mM) in the presence of laccase ([…]) for 18h at room temperature. Furthermore, to test the suitability of HBA (5mM) as mediator some additional experiments were performed. The chemical preservative VP 7/ 260a containing IPBC and propiconazole as active agents was used as a benchmark with a final concentration of 5% (v/v). The wood specimens were treated and used in the biological tests, with the following modifications: • Control = Wood treated with buffer • L = Wood treated with laccase alone • L-M = Wood treated with laccase and mediator • Iso = Wood treated with isoeugenol • Iso-L = Wood treated with isoeugenol and laccase • Iso-L-M = Wood treated with isoeugenol, laccase and mediator • Thy = Wood treated with thymol • Thy-L = Wood treated with thymol and laccase • Thy-L-M = Wood treated with thymol and laccase and mediator • Ix = Wood treated with 1 or 50mM iodide (x = concentration of iodide) • Ix-L = Wood treated with 1 or 50mM iodide and laccase • Ix-L-M = Wood treated with 1 or 50mM iodide, laccase and mediator • VP7 = Wood treated with VP 7/ 260a (IPBC and propiconazole)
After the reaction all wood specimens of batch 1 had undergone a leaching procedure comprising five cycles of incubation in ddH2O (liquid volume min. 10 times the specimen volume, 100rpm, room temperature, 24h) and water exchange. Half of the wood specimens of batch 2 were exposed to leaching for two weeks including nine steps of water changing according to EN 84 (29), the other half was used without leaching in biotests.
The resistance of the treated wood against blue stain and wood decay fungi was determined in biotests 2 according to the European standards EN 152-2 (30) and EN 113 (31) with slight modifications. The EN 152 is a classical test for blue staining, originally intended to determine the effectiveness of a preservative treatment against blue stain in service. The treated wood samples were dipped into a spore suspension of A. pullulans, C. picea, C. herbarum and D. pinicola (cfu: > 10^5) and placed horizontally in a Kolle flask containing vermiculite (18g) which was inoculated additionally with 40ml of the spore suspension. The incubated specimens were stored in an incubation room at 22°C and 70% RH (6 weeks). After incubation the surface was evaluated by classifying the percentage of blue-stain discolouration from 0 to 5 according to Thwaites et al. (32) (Table 1). Table 1: Determination of the blue stain discoloration

O. placenta [3] = test: Biotests 2: mini-wood block decay test (comparable with EN 113), mass loss; format: cell-based, Oligoporus placenta; conditions: wood batch 2, non-leached and leached, 12 weeks incubation; numbers only in Figure 2
Method: as §3
(§4) The enzymatic wood iodination and polymerisation were carried out by dipping three wood specimens of batch 1 in 30ml or 12 wood specimens of batch 2 in 200ml reaction solution (pH 4-6) containing one of the phenolic compounds (4mM), or potassium iodide (1 or 50mM) in the presence of laccase (10U ml^-1) and either 10µM ABTS for batch 1 or 100µM ACS for batch 2 under shaking (100rpm) for 18h at room temperature. […]
(§5) The treated wood was aseptically added to fully colonised Petri dishes (135mm diameter, 2% malt extract agar (MEA)) by O. placenta and T. versicolor respectively and incubated at 22C° and 70% RH. The ability of the wood-decay fungi to degrade the wood was determined gravimetrically after incubation periods of 6 and 12 weeks and expressed as mass loss (%) according to EN 113 (31): Mass loss(%) = (m0 −m1)/(m0)⋅100 [formula] […]

T. versicolor [4] = test: as above; format: cell-based, Trametes versicolor; conditions: wood batch 2, non-leached and leached, 12 weeks incubation; numbers only in Figure 2
Method: as §3, §4, §5

A. alternata = test: Growth inhibition on supplemented malt extract agar plates (Example 1); format: cell-based; conditions: 2% MEA; phenolic derivatives 4mM, VP 7/ 260a 5% (v/v); without wood; ±SE, n = 3
D. pinicola = test: as above; format: cell-based, Discula pinicola; conditions: 2% MEA; phenolic derivatives 4mM, VP 7/ 260a 5% (v/v); without wood; ±SE, n = 3
Method: (§6) In addition to the mentioned biotests 2 the antimicrobial activity of the reaction derivatives without wood was evaluated on agar plates (5), excluding the laccase-catalysed iodine solution. It was assumed that the iodine molecules would react with starch from malt to form polyiodide chains, which would prevent the antimicrobial effect (33). The laccase catalysis of the phenols was performed under shaking for 18h at room temperature as described above and the phenolic derivatives were added to 2% MEA after autoclaving to a final concentration of 4mM. The fungicide VP 7/ 260a were added to a concentration of 5% (v/v). The supplemented Petri dishes were inoculated in the centre with a mycelium agar disc (5mm diameter) taken from the sub-margin of 14 day old cultures of the ascomycetes A. pullulans and D. pinicola and the basidiomycetes O. placenta and T. versicolor. The fungal growth was estimated by measuring the colony diameter and the growth inhibition was expressed as % of reference grown on non-supplemented malt agar.

O. placenta [5] = test: as above; format: cell-based, Oligoporus placenta; conditions: 2% MEA; phenolic derivatives 4mM, VP 7/ 260a 5% (v/v); without wood; ±SE, n = 3
Method: as §6

T. versicolor [6] = test: as above; format: cell-based, Trametes versicolor; conditions: 2% MEA; phenolic derivatives 4mM, VP 7/ 260a 5% (v/v); without wood; ±SE, n = 3
Method: as §6

| SMILES | inhibition at 1000 µM (Coniophora puteana) | inhibition at 2000 µM (Coniophora puteana) | inhibition at 4000 µM (Coniophora puteana) | inhibition at 1000 µM (Gloephyllum trabeum) | inhibition at 2000 µM (Gloephyllum trabeum) | inhibition at 1000 µM (Oligoporus placenta) | inhibition at 2000 µM (Oligoporus placenta) | inhibition at 4000 µM (Oligoporus placenta) | inhibition at 1000 µM (Trametes versicolor) | inhibition at 2000 µM (Trametes versicolor) | inhibition at 4000 µM (Trametes versicolor) | further results |
| --- | --- | --- | --- | --- | --- | --- | --- | --- | --- | --- | --- | --- |
| COc1cc(C(C)=O)cc(OC)c1O [ACS, acetosyringone] |  |  |  |  |  |  |  |  |  |  |  | laccase-catalysed tri-iodide formation ([1]; pH 5, 50µM mediator): 0.89 µM/min/mg |
| CCn1c(=NN=c2sc3cc(S(=O)(=O)O)ccc3n2CC)sc2cc(S(=O)(=O)O)ccc21 [ABTS, 2,2-azino-bis(3-ethylbenzothiazoline-6-sulfonic acid)] |  |  |  |  |  |  |  |  |  |  |  | laccase-catalysed tri-iodide formation ([1]; pH 4, 10µM mediator): 0.13 µM/min/mg |
| COc1cc(C=O)ccc1O [Vanillin, 4-hydroxy-3-methoxybenzaldehyde] | 18.2 ± 31.6% | 24.2% | 61.5% | 2.19 ± 1% | 13.4% | 0% | 11.8 ± 8.5% | 55.3% | 6.59 ± 4.2% | 18.8% | 42% | inhibition at 1000 µM (Aureobasidium pullulans): 0%; inhibition at 2000 µM (Aureobasidium pullulans): 8.52 ± 14.8%; inhibition at 4000 µM (Aureobasidium pullulans): 17.9 ± 11.5%; inhibition at 4000 µM (Gloephyllum trabeum): 51.4% |
| O=C(O)c1ccc(O)cc1 [HBA, 4-hydroxybenzoic acid] |  |  |  |  |  |  |  |  |  |  |  | function as mediator ([1]; data not shown): not to have a function as mediator |
| [I-].[K+] [I1, potassium iodide] |  |  |  |  |  |  |  |  |  |  |  | Blue stain discoloration, Leached [2]: 3.7 ±0.4; Blue stain discoloration, Non-leached [2]: 2.2 ±0.4 |
| Cc1ccc(C(C)C)c(O)c1 [Thy, thymol] |  |  |  |  |  |  |  |  |  |  |  | Blue stain discoloration, Leached [2]: 3.5 and 3.5 ±0.3; Blue stain discoloration, Non-leached [2]: 2.5 and 2.5 ±0.6; mass loss of wood caused by O. placenta (result in words) (O. placenta [3]): minor effect; mass loss of wood caused by T. versicolor (result in words) (T. versicolor [4]): minor effect; Growth inhibition [%] on agar plate compared to control, A. alternata (A. alternata): 100 ±0.0%; Growth inhibition [%] on agar plate compared to control, D. pinicola (D. pinicola): 100 ±0.0%; Growth inhibition [%] on agar plate compared to control, O. placenta (O. placenta [5]): 100 ±0.0%; Growth inhibition [%] on agar plate compared to control, T. versicolor (T. versicolor [6]): 100 ±0.0% |
| CCOc1cc(C=O)ccc1O [Ethylvanillin] | 0% | 21.1 ± 18.3% | 31.2 ± 21.2% | 15.8% | 23.9% | 0% | 0% | 0% | 10.2% | 29.9% | 11.4% |  |
| COc1cc(C=O)cc(I)c1O [5-Iodo-Vanillin (commercial), 4-hydroxy-3-iodo-5-methoxybenzaldehyde] | 66.4% | 65.1% | 56.5% | 40.9% | 37.3% | 17.7% | 22.5% | 9.06% | 78.5% | 82% | 82.9% | inhibition at 1000 µM (Aureobasidium pullulans): 1.36 ± 1.4%; inhibition at 2000 µM (Aureobasidium pullulans): 7.31%; inhibition at 4000 µM (Aureobasidium pullulans): 1.51 ± 2.4%; inhibition at 4000 µM (Gloephyllum trabeum): 38.1% |
